Where two headings read alike, the source gives them in different places.
What was measured:
HT-29 = assay: Cytotoxic assay (IC50) in HT-29; format: cell-based, human
Text: (§1) DS-B: cells were exposed to a chemical stress comprising a chemical stimulation with chemotherapeutic agents commonly used for the colorectal cancer: 5-FU (Sigma, F6627), oxaliplatin (Sigma, Y0000271) or SN-38 (7-ethyl-10-hydroxy-camptothecin) (Sigma, H0165). In particular, the association of a chemotherapeutic agent with each cell line was based on literature assumptions (Table 3), and further on the degree of resistance of the cell line to each chemotherapeutic agent. For each cell line, this resistance level to each chemotherapeutic agent was assessed by determining the half maximal inhibitory concentration (IC50) in a cytotoxic assay.

HCT-116 = assay: Cytotoxic assay (IC50) in HCT-116; format: cell-based, human
Text: as §1

LoVo = assay: Cytotoxic assay (IC50) in LoVo; format: cell-based, human
Text: as §1

CD107 (LAMP-1) = assay: FACS marker expression: CD107; format: cell-based, human; conditions: HT-29 cells treated with oxaliplatin
Experimental: (§2) A comparison of marker expression was carried out to validate each DS-A and DS-B.
(§3) Finally, the vaccine composition (DP or “STC-1010”) could be formulated by pooling all six DS (3 DS-A—one for each cell line; and 3 DS-B—one for each cell line) in 100 μL doses (each comprising 3 million cells).

CD54 (ICAM-1) = assay: FACS marker expression: CD54; format: cell-based, human; conditions: HT-29 cells treated with oxaliplatin
Experimental: as §2

CD95 (FAS receptor) = assay: FACS marker expression: CD95; format: cell-based, human; conditions: HT-29 cells treated with oxaliplatin
Experimental: as §2

[1] = system: colorectal human cell lines; conditions: according to the literature; cited from earlier work
CD66 (CEA) = assay: FACS marker expression: CD66; format: cell-based, human
Experimental: as §2

SW480 = assay: Cytotoxic assay (IC50) in SW480; format: cell-based; conditions: Homo sapiens, SW480 cell line
Text: as §1

CD243 (MDR-1) = assay: FACS marker expression: CD243; format: cell-based, human; conditions: LoVo cells treated with 5-FU
Experimental: as §2, §3

[2] = HT-29 cell line, cytotoxic assay, read-out: IC50
[3] = HCT-116 cell line, cytotoxic assay, read-out: IC50
[4] = LoVo cell line, cytotoxic assay, read-out: IC50

| SMILES | IC50 (HT-29; [2]) [nM] | IC50 (HCT-116; [3]) [nM] | IC50 (LoVo; [4]) [nM] | CD107 expression as compared to unstressed cells (CD107 (LAMP-1)) | CD54 expression as compared to unstressed cells (CD54 (ICAM-1)) | CD95 expression as compared to unstressed cells (CD95 (FAS receptor)) | Resistance cell lines [1] | CD66 expression as compared to unstressed cells (CD66 (CEA); HCT-116 cells treated with SN-38) | IC50 (HT-29; Homo sapiens, HT-29) [nM] | IC50 (HCT-116; Homo sapiens, HCT-116) [nM] | IC50 (LoVo; Homo sapiens, LoVo) [nM] | IC50 (SW480) [nM] | CD66 expression as compared to unstressed cells (CD66 (CEA); LoVo cells treated with 5-FU) | CD243 expression as compared to unstressed cells (CD243 (MDR-1)) |
| --- | --- | --- | --- | --- | --- | --- | --- | --- | --- | --- | --- | --- | --- | --- |
| O=C1[O][Pt]2([NH][C@@H]3CCCC[C@H]3[NH]2)[O]C1=O [Oxaliplatin, oxaliplatin] | 460 | 600 | 1100 | overexpression | overexpression | overexpression | HCT-116, HT-29, LoVo, SW48 | – | – | – | – | – | – | – |
| CCc1c2c(nc3ccc(O)cc13)-c1cc3c(c(=O)n1C2)COC(=O)[C@]3(O)CC [SN-38, 7-ethyl-10-hydroxy-camptothecin] | 130 | 50 | 22 | – | – | – | HCT-116, HT-29, SW48 | overexpression | – | – | – | – | – | – |
| O=c1[nH]cc(F)c(=O)[nH]1 [5-FU, fluorouracil] | – | – | – | – | – | – | HCT-116, HT-29, SW48, SW480 | – | 3600 | 17000 | 2400 | 23100 | overexpression | overexpression |

Reference: patent publication US20240123045A1, “NONAUTOLOGOUS MULTI-STRESSED CANCER CELLS AND USES THEREOF FOR VACCINATING AND TREATING CANCERS” (BRENUS PHARMA, priority 2021, published 2024)
